Measured values as given in patent US10556888B2, “Pyrazole compounds or salts thereof, preparation methods therefor, herbicidal compositions and use thereof” (QINGDAO KINGAGROOT CHEMICAL COMPOUNDS CO., LTD, priority 2015, dated 2020).

How the values were obtained:
[1] = test system: main crop (wheat, corn, rice, soybean, cotton, oilseed, millet and sorghum); assay: Post-emergence test experiment, main crops (Table 2); format: in vivo; design: key: Level 10: completely dead; Level 9: above 90% growth inhibition rate; Level 8: above 80% growth inhibition rate; Level 7: above 70% growth inhibition rate; Level 6: above 60% growth inhibition rate; Level 5: above 50% growth inhibition rate; Level 4: above 30% growth inhibition rate; Level 3: above 20% growth inhibition rate; Level 2: above 10% growth inhibition rate; Level 1: above 1-10% growth inhibition rate; Level 0: no effect; conditions: 3 weeks after spraying, greenhouse
Procedure, shortened: (§1)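 Weed and crop seeds (wheat, corn, rice, soybean, cotton, oilseed, millet, sorghum) grown in soil in greenhouse; sprayed at 2-3 leaf stage, 2-3 weeks after sowing, with compound in acetone/Tween 80/water. Effects assessed after 3 weeks further greenhouse culture.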

[2] = test system: Monocotyledonous and dicotyledonous weed; assay: Post-emergence test experiment, weed control effect (Table 2); format: in vivo; design: key to weed control effect, Setaria viridis (level) / weed control effect, Rorippa indica (level) / weed control effect, Abutilon theophrasti (level) / weed control effect, Echinochloa crus-galli (level) / weed control effect, Digitaria sanguinalis (level): Level 10: completely dead; Level 9: above 90% growth inhibition rate; Level 8: above 80% growth inhibition rate; Level 7: above 70% growth inhibition rate; Level 6: above 60% growth inhibition rate; Level 5: above 50% growth inhibition rate; Level 4: above 30% growth inhibition rate; Level 3: above 20% growth inhibition rate; Level 2: above 10% growth inhibition rate; Level 1: above 1-10% growth inhibition rate; Level 0: no effect; conditions: 3 weeks after spraying, greenhouse
Procedure, shortened: as §1

SMILES	effect on crop, corn (level) ([1]; 30 g/ha)	effect on crop, rice (level) ([1]; 30 g/ha)	effect on crop, wheat (level) ([1]; 30 g/ha)	weed control effect, Abutilon theophrasti (level) ([2]; 30 g/ha)	weed control effect, Bidens pilosa (level) ([2]; 30 g/ha)	weed control effect, Digitaria sanguinalis (level) ([2]; 30 g/ha)	weed control effect, Echinochloa crus-galli (level) ([2]; 30 g/ha)	weed control effect, Rorippa indica (level) ([2]; 30 g/ha)	weed control effect, Setaria viridis (level) ([2]; 30 g/ha)	effect on crop, corn (level) ([1]; 120 g/ha)	effect on crop, rice (level) ([1]; 120 g/ha)	effect on crop, wheat (level) ([1]; 120 g/ha)	weed control effect, Abutilon theophrasti (level) ([2]; 120 g/ha)	weed control effect, Bidens pilosa (level) ([2]; 120 g/ha)	weed control effect, Digitaria sanguinalis (level) ([2]; 120 g/ha)	weed control effect, Echinochloa crus-galli (level) ([2]; 120 g/ha)	weed control effect, Rorippa indica (level) ([2]; 120 g/ha)	weed control effect, Setaria viridis (level) ([2]; 120 g/ha)	also measured
Cc1nn(C)cc1C(=O)Oc1c(C(=O)c2ccc(S(C)(=O)=O)c(COCC(F)(F)F)c2Cl)c(C)nn1C(C)C [Compound 98]	1 (Level 1: above 1-10% growth inhibition rate)	5 (Level 5: above 50% growth inhibition rate)	0	5 (Level 5: above 50% growth inhibition rate)	7 (Level 7: above 70% growth inhibition rate)	8 (Level 8: above 80% growth inhibition rate)	10	10	10	–	–	–	–	–	–	–	–	–	–
CCOc1c(C(=O)Oc2c(C(=O)c3ccc(S(C)(=O)=O)c(Cn4cc(C)cn4)c3Cl)cnn2C)cnn1C [Compound 23]	–	–	–	–	–	–	–	–	–	0	0	0	6 (Level 6: above 60% growth inhibition rate)	6 (Level 6: above 60% growth inhibition rate)	1 (Level 1: above 1-10% growth inhibition rate)	10	4 (Level 4: above 30% growth inhibition rate)	3 (Level 3: above 20% growth inhibition rate)	–
CCCCOCc1c(S(C)(=O)=O)ccc(C(=O)c2c(C3CC3)nn(C)c2OC(=O)c2cnn(C)c2)c1Cl [Compound 75]	0	3 (Level 3: above 20% growth inhibition rate)	0	5 (Level 5: above 50% growth inhibition rate)	6 (Level 6: above 60% growth inhibition rate)	9 (Level 9: above 90% growth inhibition rate)	10	10	7 (Level 7: above 70% growth inhibition rate)	–	–	–	–	–	–	–	–	–	–
CCn1ncc(C(=O)c2ccc(S(C)(=O)=O)c(Cn3cc(C)cn3)c2C)c1OC(=O)c1cnn(C)c1 [Compound 87]	–	–	–	–	–	–	–	–	–	0	0	0	6 (Level 6: above 60% growth inhibition rate)	6 (Level 6: above 60% growth inhibition rate)	1 (Level 1: above 1-10% growth inhibition rate)	10	4 (Level 4: above 30% growth inhibition rate)	3 (Level 3: above 20% growth inhibition rate)	–
Cn1cc(C(=O)Oc2c(C(=O)c3ccc(S(C)(=O)=O)c(COCC(F)(F)F)c3Cl)cnn2C)cn1 [Compound 67]	1 (Level 1: above 1-10% growth inhibition rate)	3 (Level 3: above 20% growth inhibition rate)	0	7 (Level 7: above 70% growth inhibition rate)	7 (Level 7: above 70% growth inhibition rate)	7 (Level 7: above 70% growth inhibition rate)	10	10	9 (Level 9: above 90% growth inhibition rate)	–	–	–	–	–	–	–	–	–	–
CCOCc1c(S(C)(=O)=O)ccc(C(=O)c2cnn(C)c2OC(=O)c2cn(C)nc2C)c1Cl [Compound 42]	0	5 (Level 5: above 50% growth inhibition rate)	0	7 (Level 7: above 70% growth inhibition rate)	7 (Level 7: above 70% growth inhibition rate)	7 (Level 7: above 70% growth inhibition rate)	10	10	9 (Level 9: above 90% growth inhibition rate)	–	–	–	–	–	–	–	–	–	–
COCCCOCc1c(S(C)(=O)=O)ccc(C(=O)c2c(C)nn(C)c2OC(=O)c2cn(C)nc2C)c1Cl [Compound 37]	–	–	–	–	–	–	–	–	–	–	–	–	–	–	–	–	–	–	effect on crop, corn (level) ([1]; 60 g/ha): 0; effect on crop, rice (level) ([1]; 60 g/ha): 1 (Level 1: above 1-10% growth inhibition rate); effect on crop, wheat (level) ([1]; 60 g/ha): 0; weed control effect, Abutilon theophrasti (level) ([2]; 60 g/ha): 10; weed control effect, Bidens pilosa (level) ([2]; 60 g/ha): 8 (Level 8: above 80% growth inhibition rate); weed control effect, Digitaria sanguinalis (level) ([2]; 60 g/ha): 10; weed control effect, Echinochloa crus-galli (level) ([2]; 60 g/ha): 9 (Level 9: above 90% growth inhibition rate); weed control effect, Rorippa indica (level) ([2]; 60 g/ha): 10; weed control effect, Setaria viridis (level) ([2]; 60 g/ha): 5 (Level 5: above 50% growth inhibition rate)
Cc1cnn(Cc2c(S(C)(=O)=O)ccc(C(=O)c3cnn(C)c3OC(=O)c3cnn(C)c3)c2Cl)c1 [Compound 17]	–	–	–	–	–	–	–	–	–	0	0	0	6 (Level 6: above 60% growth inhibition rate)	6 (Level 6: above 60% growth inhibition rate)	0	10	4 (Level 4: above 30% growth inhibition rate)	1 (Level 1: above 1-10% growth inhibition rate)	–
CCc1nn(CC)c(OC(=O)c2cn(C)nc2C)c1C(=O)c1ccc(S(C)(=O)=O)c(Cn2nc(C)cc2C)c1Cl [Compound 95]	–	–	–	–	–	–	–	–	–	0	0	0	6 (Level 6: above 60% growth inhibition rate)	6 (Level 6: above 60% growth inhibition rate)	1 (Level 1: above 1-10% growth inhibition rate)	10	4 (Level 4: above 30% growth inhibition rate)	3 (Level 3: above 20% growth inhibition rate)	–
CCOc1c(C(=O)Oc2c(C(=O)c3ccc(S(C)(=O)=O)c(COCC(F)F)c3Cl)cnn2C)cnn1C [Compound 57]	0	3 (Level 3: above 20% growth inhibition rate)	0	7 (Level 7: above 70% growth inhibition rate)	7 (Level 7: above 70% growth inhibition rate)	7 (Level 7: above 70% growth inhibition rate)	10	10	9 (Level 9: above 90% growth inhibition rate)	–	–	–	–	–	–	–	–	–	–
Cc1c(C(=O)c2c(C3CC3)nn(C)c2OC(=O)c2cnn(C)c2)ccc(S(C)(=O)=O)c1COCC(F)(F)F [Compound 78]	1 (Level 1: above 1-10% growth inhibition rate)	3 (Level 3: above 20% growth inhibition rate)	0	7 (Level 7: above 70% growth inhibition rate)	7 (Level 7: above 70% growth inhibition rate)	7 (Level 7: above 70% growth inhibition rate)	10	10	10	–	–	–	–	–	–	–	–	–	–
CCOCCOCc1c(S(C)(=O)=O)ccc(C(=O)c2cnn(C)c2OC(=O)c2cnn(C)c2OCC)c1Cl [Compound 59]	0	3 (Level 3: above 20% growth inhibition rate)	0	7 (Level 7: above 70% growth inhibition rate)	7 (Level 7: above 70% growth inhibition rate)	7 (Level 7: above 70% growth inhibition rate)	8 (Level 8: above 80% growth inhibition rate)	10	6 (Level 6: above 60% growth inhibition rate)	–	–	–	–	–	–	–	–	–	–
COCc1c(S(C)(=O)=O)ccc(C(=O)c2c(C3CC3)nn(C)c2OC(=O)c2cnn(C)c2)c1Cl [Compound 72]	2 (Level 2: above 10% growth inhibition rate)	3 (Level 3: above 20% growth inhibition rate)	0	7 (Level 7: above 70% growth inhibition rate)	7 (Level 7: above 70% growth inhibition rate)	8 (Level 8: above 80% growth inhibition rate)	10	10	8 (Level 8: above 80% growth inhibition rate)	–	–	–	–	–	–	–	–	–	–
